Assay results published in patent US8394859B2, “Combretastatin analogs with tubulin binding activity” (Baylor University, priority 2005, dated 2013).
Values after ≈ are worked out from the molar mass of the structure shown.

How the values were obtained:
DU-145 = assay: In vitro growth inhibition, SRB assay, prostate DU-145; assay type: cell-based; conditions: Homo sapiens, prostate DU-145, 48 hours incubation, read-out: GI50 (μM/mL) for Cell Line DU-145
Procedure: (§1) Newly prepared compounds were evaluated for cytotoxic activity against a variety of cell lines derived from human tumors using an assay system similar to the National Cancer Institute procedure previously described (Monks et al., J. Natl. Cancer Inst., 1991). Briefly, the cell suspensions, diluted according to the particular cell type and the expected target cell density (5,000-40,000 cells per well based on cell growth characteristics), were added by pipet (100 ul) to 96-well microtiter plates. Inoculates were allowed a preincubation time of 24-28 hours at 37 C for stabilization. Incubation with the inhibitor compounds lasted for 48 hours in 5% CO2 atmosphere and 100% humidity. Determination of cell growth was performed by in situ fixation of cells, followed by staining with a protein-binding dye sulforhodamine B (SRB), which binds to the basic amino acids of cellular macromolecules. The solubilized stain was measured spectrophotometrically.
(§2) Several compounds were evaluated for cytotoxic activity against […] P388 leukemia cell lines. The effective dose or ED50 value (defined as the effective dosage required for inhibition of 50% of cell growth) was measured. These and additional compounds were evaluated in terms of growth inhibitory activity against several other human cancer cell lines including: central nervous system (“CNS”, SF-268), pancreas (BXPC-3), non-small cell lung cancer (“lung-NSC”, NCI-H460), breast (MCF-7), colon (KM20L2), ovarian (OVCAR-3), and prostate (DU-145). The growth inhibition GI50 (defined as the dosage required for inhibition of tumor cell growth by 50%) is listed for each cell line.

purified tubulin = assay: In vitro inhibition of tubulin polymerization; assay type: biochemical; conditions: purified bovine brain tubulin 1.5 mg/ml, preincubated 15 minutes at 37° C., GTP-induced, 350 nm
Procedure: IC50 values for tubulin polymerization were determined according to a previously described procedure (Bai et al., Cancer Research, 1996) and are summarized in Table 3 below. Purified tubulin is obtained from bovine brain cells as previously described (Hamel and Lin, Biochemistry, 1984). Various amounts of inhibitor were preincubated for 15 minutes at 37° C. with purified tubulin. After the incubation period, the reaction was cooled and GTP was added to induce tubulin polymerization. Polymerization was then monitored in a Gilford spectrophotometer at 350 nm. The final reaction mixtures (0.25 ml) contained 1.5 mg/ml tubulin, 0.6 mg/ml microtubule-associated proteins (MAPs), 0.5 mM GTP, […], 4% DMSO and 0.1M 4-morpholineethanesulfonate buffer (MES, pH 6.4). IC50 is the amount of inhibitor needed to inhibit tubulin polymerization 50% with respect to the amount of […] that occurs in the absence of inhibitor.

MCF-7 = assay: In vitro growth inhibition, SRB assay, breast MCF-7; assay type: cell-based; conditions: Homo sapiens, MCF7, breast MCF-7, 48 hours incubation, read-out: GI50 (μM/mL) for Cell Line MCF-7
Procedure: as §1, §2

NCI-H460 = assay: In vitro growth inhibition, SRB assay, lung-NSC NCI-H460; assay type: cell-based; conditions: Homo sapiens, lung-NSC NCI-H460, 48 hours incubation, read-out: GI50 (μM/mL) for Cell Line NCI-H460
Procedure: as §1, §2

BXPC-3 = assay: In vitro growth inhibition, SRB assay, pancreas BXPC-3; assay type: cell-based; conditions: Homo sapiens, 48 hours incubation, read-out: GI50 (μM/mL) for Cell Line BXP-3
Procedure: as §1, §2

SF-268 = assay: In vitro growth inhibition, SRB assay, CNS SF-268; assay type: cell-based; conditions: Homo sapiens, CNS SF-268, 48 hours incubation, read-out: GI50 (μM/mL) for Cell Line SF-268
Procedure: as §1, §2

KM20L2 = assay: In vitro growth inhibition, SRB assay, colon KM20L2; assay type: cell-based; conditions: Homo sapiens, KM-20L2, colon KM20L2, 48 hours incubation, read-out: GI50 (μM/mL) for Cell Line KM20L2
Procedure: as §1, §2

| Structure (SMILES) | GI50 (DU-145) | IC50 (purified tubulin) | GI50 (MCF-7) | GI50 (NCI-H460) | GI50 (BXPC-3) | GI50 (SF-268) | GI50 (KM20L2) |
| --- | --- | --- | --- | --- | --- | --- | --- |
| COc1ccc2c(c1)CCCC=C2c1cc(OC)c(OC)c(OC)c1 [Compound 2, 3-Methoxy-9-(3,4,5-trimethoxy-phenyl)-6,7-dihydro-5H-benzocycloheptene] | > 10 µg/mL | 1.4 ± 0.2 µM | > 10 µg/mL | > 10 µg/mL | > 10 µg/mL | > 10 µg/mL | > 10 µg/mL |
| COc1ccc(C(=O)C2=CCCCc3c2cc(OC)c(OC)c3OC)cc1O [Compound 24, (3-Hydroxy-4-methoxy-phenyl)-(1,2,3-trimethoxy-8,9-dihydro-7H-benzocyclohepten-5-yl)-methanone] | – | ~40 µM | – | – | – | – | – |
| COc1ccc2c(c1O)CCCC(c1cc(OC)c(OC)c(OC)c1)=C2 [Compound 3, 2-Methoxy-6-(3,4,5-trimethoxy-phenyl)-8,9-dihydro-7H-benzocyclohepten-1-ol] | – | ~40 µM | – | – | – | – | – |
| COc1ccc2c(c1)CCCC(c1cc(OC)c(OC)c(OC)c1)=C2 [Compound 1, 3-Methoxy-8-(3,4,5-trimethoxy-phenyl)-6,7-dihydro-5H-benzocycloheptene] | 0.33 µg/mL (≈ 0.969 µM) | ~40 µM | 0.32 µg/mL (≈ 0.94 µM) | 0.23 µg/mL (≈ 0.676 µM) | 0.4 µg/mL (≈ 1.18 µM) | 0.28 µg/mL (≈ 0.823 µM) | 0.2 µg/mL (≈ 0.588 µM) |
| COc1ccc(C(=O)C2=CCCCc3c2cc(OC)c(OC)c3OC)c(O)c1O [Compound 23, (2,3-Dihydroxy-4-methoxy-phenyl)-(1,2,3-trimethoxy-8,9-dihydro-7H-benzocyclohepten-5-yl)-methanone] | 0.026 µg/mL (≈ 0.0649 µM) | ~40 µM | 0.0059 µg/mL (≈ 0.0147 µM) | 0.023 µg/mL (≈ 0.0574 µM) | 0.017 µg/mL (≈ 0.0425 µM) | 0.009 µg/mL (≈ 0.0225 µM) | 0.031 µg/mL (≈ 0.0774 µM) |
